Here are results for five compounds from US6541463B1, “Inhibitors of type 5 and type 3 17β-hydroxysteroid dehydrogenase and methods for their use” (Endorecherche, Inc., priority 1998, dated 2003).

SMILES strings stand for the structures.

In test [1] the test system is Shionogi mouse mammary carcinoma cells. Briefly: Androgenic activity: stimulation of proliferation of Shionogi cells. The test is classed as cell-based. To be noted: Table 4′. The procedure, abridged: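 Shionogi mouse mammary carcinoma cells, at 20 000 cells/well in medium with 5% charcoal-stripped FCS, were grown 10–12 days with the inhibitor at 10^−7 M and 10^−6 M in triplicate. Medium was changed every 3–4 days. Proliferation was read by Coulter counting and given as % stimulation.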

The test system is the same in test [2]. The test can be described thus: Antiandrogenic activity: inhibition of DHT-induced proliferation of Shionogi cells. The test is classed as cell-based. To be noted: Table 4′, DHT-induced proliferation; for Antiandrogenic Activity Shionogi, DHT E^−6: E^−6 (10^−6 M). The procedure, abridged:
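Androgen-sensitive Shionogi mouse mammary carcinoma cells, 20 000/well, were grown 10–12 days in charcoal-stripped serum with increasing agent concentrations in triplicate, with medium changed every 3–4 days. Cell number was counted directly, and ED50 was derived by least-square regression.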

Regarding `COc1ccc2c(c1)C(=O)CC1C3CCC4(CCC(C)(C)C(=O)O4)C3(C)CCC21O` (centres unmarked) [EM-1386], in test [1], the “Androgenic Activity Shionogi, Basal E^−6” value is −17% and the “Androgenic Activity Shionogi, Basal E^−7” value came to 5%. In addition, in test [2], the “Antiandrogenic Activity Shionogi, DHT E^−6” value was −27% and the “Antiandrogenic Activity Shionogi, DHT E^−7” value is given as 0%.

As to `CC1CCC2(CCC3C4CCc5ccccc5C4CCC32C)OC1=O` (centres unmarked) [EM-1025], in test [1], the “Androgenic Activity Shionogi, Basal E^−6” value is 0% and the “Androgenic Activity Shionogi, Basal E^−7” value is reported as 5%. Besides, in test [2], the “Antiandrogenic Activity Shionogi, DHT E^−6” value is −25% and the “Antiandrogenic Activity Shionogi, DHT E^−7” value is on record as −14%.

On to `CC1(C)CCC2(CCC3C4CCc5cc(O)c(C#N)cc5C4CCC32C)OC1=O` (centres unmarked) [EM-01645], for which, in test [1], the “Androgenic Activity Shionogi, Basal E^−6” value is given as 35% and the “Androgenic Activity Shionogi, Basal E^−7” value is recorded as −5%. Moreover, in test [2], the “Antiandrogenic Activity Shionogi, DHT E^−6” value is given as −10% and the “Antiandrogenic Activity Shionogi, DHT E^−7” value is reported as −6%.

As to `CC12CCC3c4ccc(O)cc4CCC3C1CCC21CC=CC(=O)O1` [PB-132-140, 3-hydroxy-1,3,5(10)-estratrien-17(R)-spiro-2′-(4′,5′-dihydro-6′-oxo)pyran], in test [1], the “Androgenic Activity Shionogi, Basal E^−6” value is reported as −18% and the “Androgenic Activity Shionogi, Basal E^−7” value came to 30%. For the same compound, in test [2], the “Antiandrogenic Activity Shionogi, DHT E^−6” value came out at 0% and the “Antiandrogenic Activity Shionogi, DHT E^−7” value came to 16%.

For `CC1CCC2(CCC3C4CCc5cc(O)c([N+](=O)[O-])cc5C4CCC32C)OC1=O` [EM-1131, 2-Nitro-1,3,5(10)-estratrien-3-ol-17(R)-spiro-2′-(5′-methyl-6′-oxo)tetrahydropyran], in test [1], the “Androgenic Activity Shionogi, Basal E^−6” value was found to be 0% and the “Androgenic Activity Shionogi, Basal E^−7” value is 0%. For the same compound, in test [2], the “Antiandrogenic Activity Shionogi, DHT E^−6” value is listed as −47% and the “Antiandrogenic Activity Shionogi, DHT E^−7” value was −15%.
